One assay concerns the target T1, Q46 protein aggregates (Homo sapiens, UniProt P42858).
T1 construct: fused on or other part: GST at the N-terminus, cut off with thrombin before aggregation
Nature of the assay: Q46 Radioligand Binding Assay (RBA), displacement of [3H3]MK-3328. The settings on record: 5 μM Q46 protein aggregates, 10 nM ligand [3H3]MK-3328, 60 minutes at 37° C. As for the experimental part:
Q46 Radioligand Binding Assay
For radioligand binding assays (RBA) GST-Q46 protein was generated based on a previous publication (Scherzinger et al. Cell, Vol. 90, 549-558, Aug. 8, 1997). For experiments 33 μM GST-Q46 was incubated with 150 μg/ml thrombin in assay buffer (150 mM NaCl, 50 mM Tris pH 8.0) and 2 mM CaCl2 for 16 hr at 37° C. Aggregated Q46 was pelleted by centrifugation for 5 min at 13,000 rpm in a bench top centrifuge and re-dissolved in the same volume of assay buffer. Test compounds were prepared by titration in DMSO at 11 concentrations from 33 μM to 1 nM. For the RBA, Q46 protein aggregates and test compounds were pre-incubated in assay buffer for 20 min at room temperature, in 140 μL/well in a 96-well plate (pp, round bottom). Then, ligand was added in 10 μL/well and incubated for 60 minutes at 37° C. Final assay concentrations were […] test compound, 5 μM Q46 protein (equivalent monomer concentration) and 10 nM ligand [^3H3]MK-3328 (Harrision et al., ACS Med Chem. Lett., 2 (2011), pp 498-502). Samples were transferred onto GF/B filter plates and washed 2× with 200 μL PBS using a Filtermate Harvester. After drying filter plates for 1 hour at 37° C., the back of the plates was sealed with foil and 30 μL/well scintillation fluid (Packard MicroScint 40) was added, incubated for 15 min in the dark and counted in a TopCount reader. For analysis, replicate data from independent assay plates were normalized towards 0% and 100% inhibition using control wells of vehicle (0% inhibition) and 3 μM unlabelled MK-3328 (100% inhibition). IC50 values were determined with a sigmoidal inhibition model with four variables (top, bottom, slope, IC50) in a global fit using the normalized replicate data.

In assay [1] the test system is NFT in sections of AD brain tissue. Particulars: in vitro autoradiography ([125I]SBIM-3) and fluorescent staining (SBIM-3); cited from earlier work.
For assay [2], the system named is recombinant tau and amyloid β1-42 (Aβ1-42) aggregates. The settings on record: higher affinity for the tau aggregates than Aβ1-42 aggregates; cited from earlier work.

In general, IC50 refers to the concentration that gives 50% inhibition. A low value points to higher potency.

T1 sequence (P42858 with tags, fused parts or gaps with the stated changes, form open): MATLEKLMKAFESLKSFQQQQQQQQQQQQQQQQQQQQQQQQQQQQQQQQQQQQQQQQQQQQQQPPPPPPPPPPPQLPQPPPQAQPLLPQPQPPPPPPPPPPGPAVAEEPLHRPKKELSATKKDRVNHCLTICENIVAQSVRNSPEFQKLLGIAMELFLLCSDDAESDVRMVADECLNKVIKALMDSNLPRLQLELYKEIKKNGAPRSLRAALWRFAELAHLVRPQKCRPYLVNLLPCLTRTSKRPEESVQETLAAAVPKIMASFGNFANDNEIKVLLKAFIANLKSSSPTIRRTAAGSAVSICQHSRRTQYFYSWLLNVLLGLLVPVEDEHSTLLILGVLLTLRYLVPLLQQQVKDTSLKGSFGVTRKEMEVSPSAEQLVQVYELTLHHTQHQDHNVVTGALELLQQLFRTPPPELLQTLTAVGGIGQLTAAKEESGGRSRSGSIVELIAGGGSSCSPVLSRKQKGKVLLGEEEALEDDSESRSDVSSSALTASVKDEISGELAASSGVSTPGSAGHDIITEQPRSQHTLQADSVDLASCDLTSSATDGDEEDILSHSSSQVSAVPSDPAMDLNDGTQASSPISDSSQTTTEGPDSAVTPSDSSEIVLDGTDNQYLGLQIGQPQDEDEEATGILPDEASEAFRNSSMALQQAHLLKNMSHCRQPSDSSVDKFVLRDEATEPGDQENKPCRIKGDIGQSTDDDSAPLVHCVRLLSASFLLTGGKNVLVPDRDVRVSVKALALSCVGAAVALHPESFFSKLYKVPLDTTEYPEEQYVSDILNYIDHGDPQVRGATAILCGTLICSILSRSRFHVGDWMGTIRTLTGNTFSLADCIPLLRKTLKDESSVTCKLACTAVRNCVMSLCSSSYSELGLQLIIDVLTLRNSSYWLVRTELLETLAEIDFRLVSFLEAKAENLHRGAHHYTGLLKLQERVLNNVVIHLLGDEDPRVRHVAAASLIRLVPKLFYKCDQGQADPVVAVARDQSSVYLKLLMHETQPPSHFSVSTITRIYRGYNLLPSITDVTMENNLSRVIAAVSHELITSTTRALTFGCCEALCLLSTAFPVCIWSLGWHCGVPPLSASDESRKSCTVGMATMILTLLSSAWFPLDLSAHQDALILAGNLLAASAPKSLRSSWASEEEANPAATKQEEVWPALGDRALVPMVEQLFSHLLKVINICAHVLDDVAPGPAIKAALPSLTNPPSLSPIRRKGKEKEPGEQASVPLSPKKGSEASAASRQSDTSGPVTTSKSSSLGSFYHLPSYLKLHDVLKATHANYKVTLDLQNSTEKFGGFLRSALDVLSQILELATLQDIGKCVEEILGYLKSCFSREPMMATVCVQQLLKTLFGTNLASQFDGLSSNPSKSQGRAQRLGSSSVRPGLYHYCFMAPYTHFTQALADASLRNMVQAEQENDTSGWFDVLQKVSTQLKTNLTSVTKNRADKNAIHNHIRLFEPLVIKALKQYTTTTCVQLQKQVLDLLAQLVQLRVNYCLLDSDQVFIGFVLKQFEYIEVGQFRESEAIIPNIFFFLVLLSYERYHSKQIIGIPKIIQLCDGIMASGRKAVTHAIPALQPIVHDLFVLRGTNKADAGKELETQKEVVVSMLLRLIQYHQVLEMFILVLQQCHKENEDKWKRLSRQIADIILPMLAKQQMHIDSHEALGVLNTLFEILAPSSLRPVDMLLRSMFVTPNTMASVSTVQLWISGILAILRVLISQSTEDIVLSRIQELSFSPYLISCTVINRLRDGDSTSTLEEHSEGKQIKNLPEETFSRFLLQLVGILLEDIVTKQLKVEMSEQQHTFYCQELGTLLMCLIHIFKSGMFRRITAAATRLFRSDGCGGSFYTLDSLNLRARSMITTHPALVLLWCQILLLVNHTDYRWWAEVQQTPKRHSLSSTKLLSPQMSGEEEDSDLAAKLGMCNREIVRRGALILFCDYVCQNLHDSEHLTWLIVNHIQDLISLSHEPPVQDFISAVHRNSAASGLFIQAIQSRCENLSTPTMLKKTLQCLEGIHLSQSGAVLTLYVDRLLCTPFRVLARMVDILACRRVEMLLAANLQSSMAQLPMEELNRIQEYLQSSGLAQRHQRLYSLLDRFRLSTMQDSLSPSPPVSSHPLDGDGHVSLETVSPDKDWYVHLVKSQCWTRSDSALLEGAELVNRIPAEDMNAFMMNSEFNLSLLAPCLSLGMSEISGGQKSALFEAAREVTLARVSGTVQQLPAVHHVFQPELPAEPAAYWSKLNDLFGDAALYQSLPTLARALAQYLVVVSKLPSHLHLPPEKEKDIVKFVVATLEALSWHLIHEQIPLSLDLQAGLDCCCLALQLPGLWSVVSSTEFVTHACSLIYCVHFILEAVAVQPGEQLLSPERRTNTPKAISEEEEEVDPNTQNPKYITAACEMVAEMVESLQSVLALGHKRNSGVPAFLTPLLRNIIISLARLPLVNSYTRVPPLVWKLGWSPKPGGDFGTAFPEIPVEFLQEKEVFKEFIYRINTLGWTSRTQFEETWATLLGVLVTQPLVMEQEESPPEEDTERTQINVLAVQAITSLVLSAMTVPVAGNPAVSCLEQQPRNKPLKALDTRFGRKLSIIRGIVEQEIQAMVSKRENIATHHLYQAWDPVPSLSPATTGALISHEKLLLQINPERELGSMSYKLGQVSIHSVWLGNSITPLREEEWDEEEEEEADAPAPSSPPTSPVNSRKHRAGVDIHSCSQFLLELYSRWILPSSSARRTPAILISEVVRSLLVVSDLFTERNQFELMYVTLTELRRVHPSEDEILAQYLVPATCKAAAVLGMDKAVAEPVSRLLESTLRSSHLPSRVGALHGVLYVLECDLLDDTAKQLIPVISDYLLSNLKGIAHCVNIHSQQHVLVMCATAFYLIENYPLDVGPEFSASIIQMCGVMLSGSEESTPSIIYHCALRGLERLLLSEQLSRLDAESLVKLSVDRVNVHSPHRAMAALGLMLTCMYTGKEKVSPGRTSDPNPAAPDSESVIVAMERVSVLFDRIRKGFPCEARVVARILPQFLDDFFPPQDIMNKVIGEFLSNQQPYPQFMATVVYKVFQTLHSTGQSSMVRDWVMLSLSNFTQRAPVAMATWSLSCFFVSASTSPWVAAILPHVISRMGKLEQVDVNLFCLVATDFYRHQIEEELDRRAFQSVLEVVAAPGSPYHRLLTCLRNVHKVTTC

Compound `COc1ccc2c(c1)CN(c1ccncc1C#N)C2` [4-(5-methoxy-2,3-dihydro-1H-isoindol-2-yl)pyridine-3-carbonitrile] showed an IC50 at Q46 protein aggregates of under 0.1 µM.
As to `CN(C)c1ccc(/C=C/c2nc3ccc(I)cc3[nH]2)cc1` [SBIM-3, 4-[(E)-2-(6-iodo-1H-benzimidazol-2-yl)ethenyl]-N,N-di methyl aniline], the “binding to NFT in sections of AD brain tissue” value in assay [1] is “bound NFT in sections of AD brain tissue”. The “ratio of Kd values (affinity for tau aggregates versus Aβ1-42 aggregates)” value in assay [2] is on record as 2.73.
For `COc1ccc(COc2ccc3c(c2)CN(c2ncncc2C#N)C3)nc1` [4-{5-[(5-methoxypyridin-2-yl)methoxy]-2,3-dihydro-1H-isoindol-2-yl}pyrimidine-5-carbonitrile], the IC50 on Q46 protein aggregates is under 0.1 µM.
The compound `COc1ccc(COc2ccc3c(c2)CN(c2ncccc2C#N)C3)nc1` [2-{5-[(5-methoxypyridin-2-yl)methoxy]-2,3-dihydro-1H-isoindol-2-yl}pyridine-3-carbonitrile] came in with an IC50 on Q46 protein aggregates of under 0.1 µM.
The same measure, in the same setting: the value for `COc1ccc(COc2ccc3c(c2)CN(c2ccncc2)C3=O)nc1` [5-[(5-methoxypyridin-2-yl)methoxy]-2-(pyridin-4-yl)-2,3-dihydro-1H-isoindol-1-one] was under 0.1 µM; that for `COc1ccc2c(c1)CN(c1ncccc1C#N)C2` [2-(5-methoxy-2,3-dihydro-1H-isoindol-2-yl)pyridine-3-carbonitrile] was under 0.1 µM; that for `COc1ccc(COc2ccc3c(c2)CN(c2ccc(=O)n(C)n2)C3)nc1` [6-{5-[(5-methoxypyridin-2-yl)methoxy]-2,3-dihydro-1H-isoindol-2-yl}-2-methyl-2,3-dihydropyridazin-3-one] was under 0.1 µM.
Still for that read-out and setting: the value for `COc1cnc(COc2ccc3c(c2)CN(c2ccncc2)C3)cn1` [5-[(5-methoxypyrazin-2-yl)methoxy]-2-(pyridin-4-yl)-2,3-dihydro-1H-isoindole] was under 0.1 µM.
The same measure, in the same setting: in the case of `COc1ccc(COc2ccc3c(c2)CN(c2ccncc2C#N)C3)nc1` [4-{5-[(5-methoxypyridin-2-yl)methoxy]-2,3-dihydro-1H-isoindol-2-yl}pyridine-3-carbonitrile] it was under 0.1 µM; in that of `COc1ccc2c(c1)CN(c1ncncc1C#N)C2` [4-(5-methoxy-2,3-dihydro-1H-isoindol-2-yl)pyrimidine-5-carbonitrile], under 0.1 µM; in that of `N#Cc1cnccc1N1Cc2ccc(OCc3cncnc3)cc2C1` [4-[5-(pyrimidin-5-ylmethoxy)-2,3-dihydro-1H-isoindol-2-yl]pyridine-3-carbonitrile], under 0.1 µM.
`N#Cc1cnccc1N1Cc2ccc(OCc3ccc(O)cn3)cc2C1` [4-{5-[(5-hydroxypyridin-2-yl)methoxy]-2,3-dihydro-1H-isoindol-2-yl}pyridine-3-carbonitrile] showed an IC50 on Q46 protein aggregates of under 0.1 µM.
Same read-out and setting: in the case of `N#Cc1cccnc1N1Cc2ccc(OCc3cncnc3)cc2C1` [2-[5-(pyrimidin-5-ylmethoxy)-2,3-dihydro-1H-isoindol-2-yl]pyridine-3-carbonitrile] it was under 0.1 µM; in that of `N#Cc1cncnc1N1Cc2ccc(OCc3ccccc3)cc2C1` [4-[5-(benzyloxy)-2,3-dihydro-1H-isoindol-2-yl]pyrimidine-5-carbonitrile], under 0.1 µM; in that of `N#Cc1cncnc1N1Cc2ccc(OCc3ccc(O)cn3)cc2C1` [4-{5-[(5-hydroxypyridin-2-yl)methoxy]-2,3-dihydro-1H-isoindol-2-yl}pyrimidine-5-carbonitrile], under 0.1 µM.

Values taken from patent publication US12036291B2, “Probes for imaging huntingtin protein” (CHDI Foundation, Inc., priority 2014, dated 2024).
